Format in all cases: in vivo
Assay [1] concerns Pemphigus bursarius. Nature of the assay: Example 2: chrysanthemums, lettuce root aphid, foliar spray. The settings on record: on roots, spray on above-ground parts, rate : I-9 144, I-2 96. The method, then: In three replications, in each case 10 109-day-old chrysanthemums of the cultivar “Camilla” in 2 l-vessels are treated against the lettuce root aphid Pemphigus bursarius. Here, the active compounds Example (I-9) (240 SC) and Example (I-2) (240 SC) are applied with a knapsack sprayer operated by pressurized air at the stated application rates only to the above-ground parts of the plants. The soil is covered with a film. The application rate is 300 l of water/ha. 0.1% a.i. of rapeseed oil methyl ester (500 EW) is added to the spray liquor.
The kill in percent is determined on the roots. 21 and 29 days after the application, the following results are obtained: […]

The test system of assay [2] is Dysmicoccus brevipes. Nature of the assay: Example 30: pineapple plants treated against Dysmicoccus brevipes. The settings on record: nymphs on pineapple plants, g a.i./ha: Confidor OD 140, I-4 75. How it is done:
In five replications, pineapple plants of the cultivar “MD2” of a height of about 35 cm are treated against Dysmicoccus brevipes. The application is carried out using a motor-operated knapsack sprayer. Here, the active compound Example (I-4) (150 OD) is tested against the commercial standard Confidor OD (240 OD), at the stated application rates. The application rate is 4000 l of water/ha. Both active compounds are sprayed as a tank mix with 500 g of a.i./ha of adjuvant NP-7 and 4 l of a.i./ha of mineral oil.
Evaluation is carried out 9, 23 and 37 days after the treatment by rating the kill of the nymphs on the plants.

The test system of assay [3] is Dysmicoceus brevipes. The assay is described as follows: Example 30a: guyabano tree treated against Dysmicoceus brevipes. As to conditions: on fruits, g a.i./m crown height: Lorsban 180, I-4 48. The method, then:
In three replications, in each case one guyabano tree is treated against Dysmicoceus brevipes. Here, the active compound Example (I-4) (240 SC), in a tank mix with 0.1% of rapeseed oil methyl ester (500 EW), is, at the stated application rate, tested against the commercial standard Lorsban (500 EC), at the stated application rate. The application is carried out using a motor-operated knapsack sprayer. Here, each plant is treated with spray liquor.
Evaluation is carried out 3, 7 and 14 days after the treatment by rating the kill in percent on the fruits.

With `CCOC(=O)OC1=C(c2cc(C)ccc2Br)C(=O)NC12CCC(OC)CC2` (centres unmarked) [Example (I-2)], the “Kill (%) 21 d” value in assay [1] (21 d after application) is 80.8%. Also, the “Kill (%) 29 d” value in assay [1] (29 d after application) is reported as 91.8%.
For the molecule `CCOC(=O)OC1=C(c2cc(C)ccc2C)C(=O)NC12CCC(OC)CC2` (centres unmarked) [Example (I-4)], the “Kill (%) 9 days” value in assay [2] (9 days after treatment) stood at 80.9%. The “Kill (%) 23 days” value in assay [2] (23 days after treatment) amounted to 84.0%. The “Kill (%) 37 days” value in assay [2] (37 days after treatment) came to 91.3%. Further, the “Kill (%) 3 days” value in assay [3] (3 days after treatment) was 89.8%. Besides, the “Kill (%) 7 days” value in assay [3] (7 days after treatment) was found to be 100%. In assay [3] (14 days after treatment), the “Kill (%) 14 days” value is recorded as 100%.

The values are drawn from patent US20090012152A1, “Use of Tetramic Acid Derivatives for Controlling Insects from the Genus of the Plane Lice (Sternorrhyncha)” (Bayer CropScience Aktiengesellschaft, priority 2005, published 2009).
